# “Also recorded” adds a separate entry of the source.
# Columns and labels:
# p38 MAP kinase = biological target: T1, p38 MAP kinase (Homo sapiens, UniProt Q16539); experiment: p38 MAP kinase phosphorylation assay (similar to Kumar); type: biochemical; conditions: assay similar to the phosphorylation assay (Kumar)
# T1 construct: expressed in transfected cells; kinase immunoprecipitated from lysates
# Procedure: Alternative assays involving in vitro analysis of potential inhibitors include those where cells (HeLa) transfected with DNA coding for relevant kinases can be activated with substances such as sorbitol, IL-1, TNF, or PMA (phorbol myristate acetate). After immunoprecipitation of cell lysates, equal aliquots of immune complexes of the kinases are pre-incubated for an adequate time with a specific concentration of the potential inhibitor followed by addition of kinase substrate buffer mix containing labeled ATP and GST-ATF2 or MBP. After incubation, kinase reactions are ceased by the addition of SDS loading buffer. Phosphorylated substrate is resolved through SDS-PAGE and visualized and quantitated in a phosphorimager. Both p38 regulation, in terms of phosphorylation, and IC50 values can be determined by quantitation. See, for example Kumar,S., McDonnell, P., Gum, R., Hand, A., Lee, J., and Young, P. (1997) Biochem. Biophys. Res. Commun. 235, 533-538.
# TF mRNA in HPBMCs = experiment: Tissue Factor mRNA expression in HPBMCs, real-time PCR; type: cell-based, human; conditions: 1 μM SD, 6 hours
# Procedure: The figures illustrate the effects of CRP on TF protein and mRNA expression in HPBMCs and their modulation by p38 inhibitor. 1.5×10^6 HPBMCs were plated in 48-well. After 1 hour medium was removed and cells were incubated with or without 10 μg/ml of purified human CRP in serum-free RPMI 1640. In parallel experiments, cells were treated with 10% FCS together with the CRP treatment. For the p38 antagonism, p38 inhibitor was added to a final concentration of 1 μM in the parallel treatment. After 16 hours cells were lysed and TF protein level was determined by Western blot. TF signal was normalized by GAPDH signal. As shown in FIG. 7(c), after 6 hours TF mRNA level were determined by real-time PCR as described in the Experimental section. […]
# RNA was extracted from the cells using Qiagen RNA extraction kit according to the manufacturer's instruction. The expression of pro-inflammatory genes IL-1β, IL-6, IL-8, TNFα, COX-2, ET-1, TF were assessed by real-time PCR. […]
# Real-time RT-PCR was performed in a two-step manner. cDNA synthesis and real-time detection were carried out in a PTC-100™ Thermal Cycler (MJ Research Inc, Waltham, Mass.) and an ABI Prism™ 7700 Sequence Detection System (Applied Biosystems, Foster City, Calif.), respectively. […] Relative quantitation of gene expression was performed using the relative standard curve method. […]
# T1 sequence (Q16539 whole entry): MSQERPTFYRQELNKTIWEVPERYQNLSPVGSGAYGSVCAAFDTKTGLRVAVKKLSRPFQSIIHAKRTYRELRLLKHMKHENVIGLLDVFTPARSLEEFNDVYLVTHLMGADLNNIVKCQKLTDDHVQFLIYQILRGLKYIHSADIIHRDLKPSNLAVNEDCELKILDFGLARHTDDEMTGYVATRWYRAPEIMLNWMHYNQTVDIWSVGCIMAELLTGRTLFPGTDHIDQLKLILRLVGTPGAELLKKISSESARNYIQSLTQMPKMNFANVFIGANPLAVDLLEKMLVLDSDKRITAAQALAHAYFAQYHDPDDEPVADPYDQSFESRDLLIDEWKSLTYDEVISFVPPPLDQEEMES
compound,measurement,setting,value
C[C@@H]1CN(Cc2ccc(F)cc2)[C@@H](C)CN1C(=O)c1cc2c(C(=O)C(=O)N(C)C)c[nH]c2cc1Cl [Compound 162],p38 MAP kinase activity,p38 MAP kinase,exhibit p38 MAP kinase activity
same,inhibition of basal TF mRNA expression,TF mRNA in HPBMCs,almost completely inhibitied
same,inhibition of CRP induced TF mRNA expression,TF mRNA in HPBMCs; listed as SD,almost completely inhibitied; also recorded: blocked

# Source: patent publication US20060019971A1, “Treatment of cardiovascular disease with inhibitors of p38 kinase” (priority 2003, published 2006)
